Experimental data published in PubChem BioAssay AID1963834 (Molecular Pharmacology Branch, DTP, NCI, 2024).
pIC50: −log10 of the molar value.

Tested on: 873145-292-R-J1-PDC complex spheroid viability
Experiment: Anticancer human tumor 873145-292-R-J1-PDC patient-derived renal clear cell carcinoma cell line growth inhibition [POLQ]
Settings: for pIC50: curve of first compound; for viability, T/C: stronger effect = lower value
Summary of the method: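 Growth inhibition in 3D: complex spheroids (tumor PDC, HUVEC, MSC) treated with POLQ inhibitor combinations; where Cmax unknown, highest tested concentration 10 microM, except SN-38 at 1 microM.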

[1] = second compound 0.0316 µM, first compound 0.0316 µM
[2] = second compound 0.0316 µM, first compound 0.1 µM
[3] = second compound 0.0316 µM, first compound 0.316 µM
[4] = second compound 0.0316 µM, first compound 1 µM
[5] = second compound 0.0316 µM, first compound 3.16 µM
[6] = second compound 0.0316 µM, first compound 10 µM
[7] = second compound 0.1 µM, first compound 0.0316 µM
[8] = second compound 0.1 µM, first compound 0.1 µM
[9] = second compound 0.1 µM, first compound 0.316 µM
[10] = second compound 0.1 µM, first compound 1 µM
[11] = second compound 0.1 µM, first compound 3.16 µM
[12] = second compound 0.1 µM, first compound 10 µM
[13] = second compound 0.316 µM, first compound 0.0316 µM
[14] = second compound 0.316 µM, first compound 0.1 µM
[15] = second compound 0.316 µM, first compound 0.316 µM
[16] = second compound 0.316 µM, first compound 1 µM
[17] = second compound 0.316 µM, first compound 3.16 µM
[18] = second compound 0.316 µM, first compound 10 µM
[19] = second compound 1 µM, first compound 0.0316 µM
[20] = second compound 1 µM, first compound 0.1 µM
[21] = second compound 1 µM, first compound 0.316 µM
[22] = second compound 1 µM, first compound 1 µM
[23] = second compound 1 µM, first compound 3.16 µM
[24] = second compound 1 µM, first compound 10 µM
[25] = second compound 3.16 µM, first compound 0.0316 µM
[26] = second compound 3.16 µM, first compound 0.1 µM
[27] = second compound 3.16 µM, first compound 0.316 µM
[28] = second compound 3.16 µM, first compound 1 µM
[29] = second compound 3.16 µM, first compound 3.16 µM
[30] = second compound 3.16 µM, first compound 10 µM
[31] = second compound 10 µM, first compound 0.0316 µM
[32] = second compound 10 µM, first compound 0.1 µM
[33] = second compound 10 µM, first compound 0.316 µM
[34] = second compound 10 µM, first compound 1 µM
[35] = second compound 10 µM, first compound 3.16 µM
[36] = second compound 10 µM, first compound 10 µM
[37] = second compound 0.0316 µM, first compound 0.00316 µM
[38] = second compound 0.0316 µM, first compound 0.01 µM
[39] = second compound 0.1 µM, first compound 0.00316 µM
[40] = second compound 0.1 µM, first compound 0.01 µM
[41] = second compound 0.316 µM, first compound 0.00316 µM
[42] = second compound 0.316 µM, first compound 0.01 µM
[43] = second compound 1 µM, first compound 0.00316 µM
[44] = second compound 1 µM, first compound 0.01 µM
[45] = second compound 3.16 µM, first compound 0.00316 µM
[46] = second compound 3.16 µM, first compound 0.01 µM
[47] = second compound 10 µM, first compound 0.00316 µM
[48] = second compound 10 µM, first compound 0.01 µM
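Note: spheroids exposed to compounds for 7 days before viability readout.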
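Throughout, for viability, T/C: luminescence signal used as surrogate for viable cell content; 100% = DMSO vehicle control viability.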

In the case of `CNCc1ccc(-c2[nH]c3cc(F)cc4c3c2CCNC4=O)cc1` + Cc1cccc(N(C)C(=O)C2C(O)CCN2c2nc(C)cc(C(F)(F)F)c2C#N)c1, the pIC50 (second compound 0.0316 µM) was less than 5.00, the pIC50 (second compound 0.1 µM) was less than 5.00 and the pIC50 (second compound 0.316 µM) was less than 5.00. It also gave a pIC50 (second compound 1 µM) of less than 5.00, a pIC50 (second compound 3.16 µM) of less than 5.00 and a pIC50 (second compound 10 µM) of less than 5.00. For the same compound, the viability, T/C [1] was 93.1%, the viability, T/C [2] was 111% and the viability, T/C [3] was 96.6%. The viability, T/C [4] was 96.4%, the viability, T/C [5] was 110% and the viability, T/C [6] was 96.2%. The viability, T/C [7] was 110%, the viability, T/C [8] was 94.1% and the viability, T/C [9] was 89.5%. For the same compound, the viability, T/C [10] was 91.8%, the viability, T/C [11] was 108% and the viability, T/C [12] was 99.9%. The viability, T/C [13] was 111%, the viability, T/C [14] was 101% and the viability, T/C [15] was 99%. For the same compound, the viability, T/C [16] was 91.3%, the viability, T/C [17] was 97.5% and the viability, T/C [18] was 111%. It also gave a viability, T/C [19] of 99.5%, a viability, T/C [20] of 102% and a viability, T/C [21] of 99.1%. It also gave a viability, T/C [22] of 109%, a viability, T/C [23] of 101% and a viability, T/C [24] of 95.9%. For the same compound, the viability, T/C [25] was 102%, the viability, T/C [26] was 91% and the viability, T/C [27] was 97.6%. It also gave a viability, T/C [28] of 87.9%, a viability, T/C [29] of 101% and a viability, T/C [30] of 107%. It also gave a viability, T/C [31] of 88.6%, a viability, T/C [32] of 90.4% and a viability, T/C [33] of 106%. It also gave a viability, T/C [34] of 88.8%, a viability, T/C [35] of 106% and a viability, T/C [36] of 94.5%.

Work on `COc1cccc(OCCCN)c1-c1cc(Nc2cnc(C#N)cn2)n[nH]1` + Cc1cccc(N(C)C(=O)C2C(O)CCN2c2nc(C)cc(C(F)(F)F)c2C#N)c1 yielded a pIC50 (second compound 0.0316 µM) of less than 6.00, a pIC50 (second compound 0.1 µM) of less than 6.00 and a pIC50 (second compound 0.316 µM) of less than 6.00. It also gave a pIC50 (second compound 1 µM) of less than 6.00, a pIC50 (second compound 3.16 µM) of less than 6.00 and a pIC50 (second compound 10 µM) of less than 6.00. For the same compound, the viability, T/C [37] was 102%, the viability, T/C [38] was 111% and the viability, T/C [1] was 77.8%. It also gave a viability, T/C [2] of 69.7%, a viability, T/C [3] of 74.8% and a viability, T/C [4] of 78.3%. The viability, T/C [39] was 104%, the viability, T/C [40] was 103% and the viability, T/C [7] was 65.9%. For the same compound, the viability, T/C [8] was 73.7%, the viability, T/C [9] was 66.5% and the viability, T/C [10] was 82.1%. It also gave a viability, T/C [41] of 95.5%, a viability, T/C [42] of 91.5% and a viability, T/C [13] of 72.7%. It also gave a viability, T/C [14] of 73.9%, a viability, T/C [15] of 75.6% and a viability, T/C [16] of 83%. The viability, T/C [43] was 98.2%, the viability, T/C [44] was 90.3% and the viability, T/C [19] was 77.5%. The viability, T/C [20] was 70.8%, the viability, T/C [21] was 81.8% and the viability, T/C [22] was 79.1%. For the same compound, the viability, T/C [45] was 98.9%, the viability, T/C [46] was 91.7% and the viability, T/C [25] was 84.7%. It also gave a viability, T/C [26] of 82.3%, a viability, T/C [27] of 67.7% and a viability, T/C [28] of 77.3%. It also gave a viability, T/C [47] of 88.1%, a viability, T/C [48] of 93.6% and a viability, T/C [31] of 91.2%. The viability, T/C [32] was 74.7%, the viability, T/C [33] was 88.6% and the viability, T/C [34] was 91.8%.

`Cn1ncnc1[C@H]1c2n[nH]c(=O)c3cc(F)cc(c23)N[C@@H]1c1ccc(F)cc1` + Cc1cccc(N(C)C(=O)C2C(O)CCN2c2nc(C)cc(C(F)(F)F)c2C#N)c1 was tested, and the pIC50 (second compound 0.0316 µM) was less than 7.00, the pIC50 (second compound 0.1 µM) was less than 7.00 and the pIC50 (second compound 0.316 µM) was less than 7.00. It also gave a pIC50 (second compound 1 µM) of less than 7.00, a pIC50 (second compound 3.16 µM) of less than 7.00 and a pIC50 (second compound 10 µM) of less than 7.00. It also gave a viability, T/C (second compound 0.0316 µM, first compound 0.000316 µM) of 104%, a viability, T/C (second compound 0.0316 µM, first compound 0.001 µM) of 94% and a viability, T/C [37] of 102%. The viability, T/C [38] was 97.5%, the viability, T/C [1] was 95.7% and the viability, T/C [2] was 98%. The viability, T/C (second compound 0.1 µM, first compound 0.000316 µM) was 104%, the viability, T/C (second compound 0.1 µM, first compound 0.001 µM) was 103% and the viability, T/C [39] was 91.6%. It also gave a viability, T/C [40] of 93.9%, a viability, T/C [7] of 105% and a viability, T/C [8] of 88.5%. The viability, T/C (second compound 0.316 µM, first compound 0.000316 µM) was 112%, the viability, T/C (second compound 0.316 µM, first compound 0.001 µM) was 99% and the viability, T/C [41] was 87.6%. For the same compound, the viability, T/C [42] was 89.6%, the viability, T/C [13] was 91.7% and the viability, T/C [14] was 89.3%. For the same compound, the viability, T/C (second compound 1 µM, first compound 0.000316 µM) was 102%, the viability, T/C (second compound 1 µM, first compound 0.001 µM) was 95.2% and the viability, T/C [43] was 105%. For the same compound, the viability, T/C [44] was 97%, the viability, T/C [19] was 97.7% and the viability, T/C [20] was 96.3%. The viability, T/C (second compound 3.16 µM, first compound 0.000316 µM) was 97%, the viability, T/C (second compound 3.16 µM, first compound 0.001 µM) was 96.3% and the viability, T/C [45] was 105%. It also gave a viability, T/C [46] of 93.5%, a viability, T/C [25] of 99.8% and a viability, T/C [26] of 91.8%. It also gave a viability, T/C (second compound 10 µM, first compound 0.000316 µM) of 103%, a viability, T/C (second compound 10 µM, first compound 0.001 µM) of 89.7% and a viability, T/C [47] of 109%. The viability, T/C [48] was 90.3%, the viability, T/C [31] was 97.8% and the viability, T/C [32] was 86.9%.

For `O=C(c1cc(Cc2n[nH]c(=O)c3ccccc23)ccc1F)N1CCN(C(=O)C2CC2)CC1` + Cc1cccc(N(C)C(=O)C2C(O)CCN2c2nc(C)cc(C(F)(F)F)c2C#N)c1, the pIC50 (second compound 0.0316 µM) was less than 5.00, the pIC50 (second compound 0.1 µM) was less than 5.00 and the pIC50 (second compound 0.316 µM) was less than 5.00. It also gave a pIC50 (second compound 1 µM) of less than 5.00, a pIC50 (second compound 3.16 µM) of less than 5.00 and a pIC50 (second compound 10 µM) of less than 5.00. It also gave a viability, T/C [1] of 104%, a viability, T/C [2] of 110% and a viability, T/C [3] of 87.7%. For the same compound, the viability, T/C [4] was 101%, the viability, T/C [5] was 102% and the viability, T/C [6] was 94.8%. It also gave a viability, T/C [7] of 103%, a viability, T/C [8] of 104% and a viability, T/C [9] of 90.4%. The viability, T/C [10] was 102%, the viability, T/C [11] was 99.9% and the viability, T/C [12] was 90.8%. The viability, T/C [13] was 94.4%, the viability, T/C [14] was 92.1% and the viability, T/C [15] was 103%. For the same compound, the viability, T/C [16] was 88.4%, the viability, T/C [17] was 106% and the viability, T/C [18] was 92.2%. For the same compound, the viability, T/C [19] was 103%, the viability, T/C [20] was 89% and the viability, T/C [21] was 87.8%. It also gave a viability, T/C [22] of 106%, a viability, T/C [23] of 94.3% and a viability, T/C [24] of 87.7%. It also gave a viability, T/C [25] of 92.9%, a viability, T/C [26] of 93.2% and a viability, T/C [27] of 111%. The viability, T/C [28] was 103%, the viability, T/C [29] was 96.8% and the viability, T/C [30] was 98.9%. For the same compound, the viability, T/C [31] was 100%, the viability, T/C [32] was 93.3% and the viability, T/C [33] was 91%. For the same compound, the viability, T/C [34] was 102%, the viability, T/C [35] was 102% and the viability, T/C [36] was 107%.
